US20250122183A1 (Pfizer Inc., priority 2023, published 2025)

How the values were obtained:
Assay type in all cases: biochemical
KAT8 Full length enzyme = KAT8 Full length enzyme (Homo sapiens (Human), UniProt Q9H7Z6); assay: KAT8 assay (SAMDI-MS acetylation of H3 1-21 peptide); details: Morrison equation fit; replicate number in parentheses; read-out: KAT8 Ki (nM) (replicate number)
KAT6A Full length enzyme = KAT6A Full length enzyme (Homo sapiens (Human), UniProt Q92794); assay: KAT6A assay (SAMDI-MS acetylation of H3 1-21 peptide); details: Morrison equation fit; replicate number in parentheses; read-out: KAT6A Ki (nM) (replicate number)
Chain of KAT6A Full length enzyme (Q92794 other isoform, or with tags, fused parts or gaps): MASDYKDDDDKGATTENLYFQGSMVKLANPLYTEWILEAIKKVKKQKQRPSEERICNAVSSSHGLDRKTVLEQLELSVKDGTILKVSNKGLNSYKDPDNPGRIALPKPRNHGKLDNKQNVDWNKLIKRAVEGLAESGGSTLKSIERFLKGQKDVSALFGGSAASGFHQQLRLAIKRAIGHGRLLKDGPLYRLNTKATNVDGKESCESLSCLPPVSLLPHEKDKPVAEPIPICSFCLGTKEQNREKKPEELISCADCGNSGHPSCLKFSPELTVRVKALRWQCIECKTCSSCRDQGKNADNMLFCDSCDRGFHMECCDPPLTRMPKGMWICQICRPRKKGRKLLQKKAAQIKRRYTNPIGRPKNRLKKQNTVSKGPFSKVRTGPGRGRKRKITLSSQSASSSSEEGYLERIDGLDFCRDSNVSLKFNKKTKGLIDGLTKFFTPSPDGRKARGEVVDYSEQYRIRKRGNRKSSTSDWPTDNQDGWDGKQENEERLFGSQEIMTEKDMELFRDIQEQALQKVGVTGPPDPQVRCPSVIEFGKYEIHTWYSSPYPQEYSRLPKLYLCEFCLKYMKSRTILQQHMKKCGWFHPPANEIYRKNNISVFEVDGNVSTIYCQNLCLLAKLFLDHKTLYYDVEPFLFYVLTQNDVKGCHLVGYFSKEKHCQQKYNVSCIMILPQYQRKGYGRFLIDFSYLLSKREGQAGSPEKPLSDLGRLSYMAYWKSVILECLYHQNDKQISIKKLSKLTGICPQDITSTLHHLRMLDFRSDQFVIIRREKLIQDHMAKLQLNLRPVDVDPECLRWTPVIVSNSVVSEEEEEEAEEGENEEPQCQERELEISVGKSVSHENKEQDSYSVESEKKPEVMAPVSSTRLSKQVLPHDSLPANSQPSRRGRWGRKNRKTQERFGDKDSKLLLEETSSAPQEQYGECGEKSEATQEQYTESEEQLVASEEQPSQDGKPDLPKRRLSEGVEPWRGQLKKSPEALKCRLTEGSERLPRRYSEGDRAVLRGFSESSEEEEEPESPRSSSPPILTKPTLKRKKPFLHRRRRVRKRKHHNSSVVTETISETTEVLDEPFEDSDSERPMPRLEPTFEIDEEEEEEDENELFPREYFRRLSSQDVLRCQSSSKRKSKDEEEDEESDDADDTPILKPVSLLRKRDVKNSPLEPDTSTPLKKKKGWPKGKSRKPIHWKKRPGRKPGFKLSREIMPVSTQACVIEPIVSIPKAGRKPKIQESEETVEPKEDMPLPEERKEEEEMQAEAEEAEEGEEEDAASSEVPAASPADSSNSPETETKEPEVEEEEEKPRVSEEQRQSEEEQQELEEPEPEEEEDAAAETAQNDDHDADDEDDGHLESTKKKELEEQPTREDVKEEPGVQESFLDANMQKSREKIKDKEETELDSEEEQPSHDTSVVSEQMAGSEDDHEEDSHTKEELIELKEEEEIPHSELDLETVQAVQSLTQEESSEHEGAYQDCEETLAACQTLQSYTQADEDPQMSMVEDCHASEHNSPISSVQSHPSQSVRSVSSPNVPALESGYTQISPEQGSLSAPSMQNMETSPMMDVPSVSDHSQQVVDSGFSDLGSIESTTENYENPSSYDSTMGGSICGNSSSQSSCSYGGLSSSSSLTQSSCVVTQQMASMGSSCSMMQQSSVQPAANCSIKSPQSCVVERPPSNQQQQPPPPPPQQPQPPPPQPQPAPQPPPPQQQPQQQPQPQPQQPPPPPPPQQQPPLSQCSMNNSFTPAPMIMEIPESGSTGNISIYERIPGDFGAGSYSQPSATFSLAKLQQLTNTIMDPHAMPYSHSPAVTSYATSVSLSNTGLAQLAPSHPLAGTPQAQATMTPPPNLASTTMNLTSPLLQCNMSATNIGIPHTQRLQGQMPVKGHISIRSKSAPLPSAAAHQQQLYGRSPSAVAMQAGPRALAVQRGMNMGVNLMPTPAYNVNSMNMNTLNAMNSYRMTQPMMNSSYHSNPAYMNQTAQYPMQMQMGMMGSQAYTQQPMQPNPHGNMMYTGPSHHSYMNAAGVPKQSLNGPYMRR

KAT5 Full length enzyme = KAT5 Full length enzyme (Homo sapiens (Human), UniProt Q92993); assay: KAT5 assay (SAMDI-MS acetylation of H4 1-21 peptide); details: Morrison equation fit; replicate number in parentheses; read-out: KAT5 Ki (nM) (replicate number)
Chain of KAT5 Full length enzyme (Q92993 whole entry): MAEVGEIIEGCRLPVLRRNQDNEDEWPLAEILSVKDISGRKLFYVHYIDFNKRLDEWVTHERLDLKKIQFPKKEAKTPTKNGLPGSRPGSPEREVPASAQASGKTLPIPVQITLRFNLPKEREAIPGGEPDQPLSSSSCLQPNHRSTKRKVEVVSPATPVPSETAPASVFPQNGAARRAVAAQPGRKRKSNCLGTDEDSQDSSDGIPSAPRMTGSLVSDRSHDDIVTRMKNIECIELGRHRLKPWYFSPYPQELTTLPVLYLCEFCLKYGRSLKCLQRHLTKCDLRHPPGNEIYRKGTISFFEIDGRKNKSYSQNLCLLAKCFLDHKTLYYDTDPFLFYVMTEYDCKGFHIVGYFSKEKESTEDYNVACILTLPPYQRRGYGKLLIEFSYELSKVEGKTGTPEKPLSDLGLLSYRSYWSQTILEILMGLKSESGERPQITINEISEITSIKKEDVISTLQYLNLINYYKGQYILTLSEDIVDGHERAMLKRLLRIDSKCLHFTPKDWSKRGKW

[1] = biological target: KAT7+JADE1+EAF6+ING5 4 protein complex (Homo sapiens (Human), UniProt O95251); assay: KAT7 JADE1 assay (SAMDI-MS acetylation of H3 1-21 peptide); details: Morrison equation fit; replicate number in parentheses; read-out: KAT7 JADE1 Ki (nM) (replicate number)

Chain of KAT8 Full length enzyme (Q9H7Z6 whole entry): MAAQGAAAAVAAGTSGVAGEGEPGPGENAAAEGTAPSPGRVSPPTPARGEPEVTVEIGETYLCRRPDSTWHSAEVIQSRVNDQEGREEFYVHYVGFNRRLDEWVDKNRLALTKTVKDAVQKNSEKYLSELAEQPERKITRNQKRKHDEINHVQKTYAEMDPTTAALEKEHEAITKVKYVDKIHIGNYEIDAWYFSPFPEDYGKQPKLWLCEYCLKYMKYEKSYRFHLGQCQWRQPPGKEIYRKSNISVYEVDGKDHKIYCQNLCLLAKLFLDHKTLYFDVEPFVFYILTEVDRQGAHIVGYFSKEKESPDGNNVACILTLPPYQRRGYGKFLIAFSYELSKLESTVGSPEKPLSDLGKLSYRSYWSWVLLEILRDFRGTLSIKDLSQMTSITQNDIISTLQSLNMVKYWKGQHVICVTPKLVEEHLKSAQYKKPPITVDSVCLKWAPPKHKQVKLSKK

| Compound | Ki (KAT8 Full length enzyme) [nM] | Ki (KAT6A Full length enzyme) [nM] | Ki (KAT5 Full length enzyme) [nM] | Ki [1] [nM] |
| --- | --- | --- | --- | --- |
| COc1cc2c(NS(=O)(=O)c3c(OC)cc(C4CCCCO4)cc3OC)noc2cc1Nc1cc(C2CC2)n[nH]1 (single isomer, unassigned) [Example 143, N-{6-[(3-cyclopropyl-1 H-pyrazol-5-yl)amino]-5-methoxy-1,2-benzoxazol-3-yl}-2,6-dimethoxy-4-(oxan-2-yl)benzene-1-sulfonamide] | 436 | 1.1 | 44.3 | 9.6 |
| COc1cc2c(NS(=O)(=O)c3c(OC)cc(C4CCN(C)C4)cc3OC)noc2cc1Nc1cc(C2CC2)n[nH]1 (single isomer, unassigned) [Example 148, N-{6-[(3-cyclopropyl-1 H-pyrazol-5-yl)amino]-5-methoxy-1,2-benzoxazol-3-yl}-2,6-dimethoxy-4-(1-methylpyrrolidin-3-yl)benzene-1-sulfonamide] | 575 | 1.1 | 78.1 | 3.6 |
| COc1cc2c(NS(=O)(=O)c3c(OC)cc(C4CN(C)CCO4)cc3OC)noc2cc1Nc1cc(C2CC2)n[nH]1 (single isomer, unassigned) [Example 152, N-{6-[(3-cyclopropyl-1 H-pyrazol-5-yl)amino]-5-methoxy-1,2-benzoxazol-3-yl}-2,6-dimethoxy-4-(4-methylmorpholin-2-yl)benzene-1-sulfonamide] | 1160 | 0.7 | 105 | 4.1 |
| COc1cc2c(NS(=O)(=O)c3c(OC)cc(C4CN(C)CCO4)cc3OC)noc2cc1Nc1cc(C2CC2)n[nH]1 (single isomer, unassigned) [Example 153, N-{6-[(3-cyclopropyl-1 H-pyrazol-5-yl)amino]-5-methoxy-1,2-benzoxazol-3-yl}-2,6-dimethoxy-4-(4-methylmorpholin-2-yl)benzene-1-sulfonamide] | 571 | 0.8 | 17.4 | 5.7 |
| COc1cc2c(NS(=O)(=O)c3c(OC)cc(C4COCCN4C)cc3OC)noc2cc1Nc1cc(C2CC2)[nH]n1 (single isomer, unassigned) [Example 180, N-{6-[(5-cyclopropyl-1 H-pyrazol-3-yl)amino]-5-methoxy-1,2-benzoxazol-3-yl}-2,6-dimethoxy-4-(4-methylmorpholin-3-yl)benzene-1-sulfonamide] | 3370 | 1.7 | 94.8 | 6.5 |
| COc1cc2c(NS(=O)(=O)c3c(OC)cc(C(C)N4CC(F)C4)cc3OC)noc2cc1Nc1cc(C2CC2)[nH]n1 (single isomer, unassigned) [Example 209, N-{6-[(5-cyclopropyl-1 H-pyrazol-3-yl)amino]-5-methoxy-1,2-benzoxazol-3-yl}-4-[1-(3-fluoroazetidin-1-yl)ethyl]-2,6-dimethoxybenzene-1-sulfonamide] | 2400 | 1.4 | 106 | 7.7 |
| COc1cc2c(NS(=O)(=O)c3c(OC)cc(-c4ccn(C)n4)cc3OC)noc2cc1Nc1cc(C2CC2C)n[nH]1 (single isomer, unassigned) [Example 242, 2,6-dimethoxy-N-(5-methoxy-6-{[3-(2-methylcyclopropyl)-1 H-pyrazol-5-yl]amino}-1,2-benzoxazol-3-yl)-4-(1-methyl-1H-pyrazol-3-yl)benzene-1-sulfonamide] | 439 | 0.9 | 34 | 9.2 |
| COc1cc2c(NS(=O)(=O)c3c(OC)cc(-c4cccnc4)cc3OC)noc2cc1Nc1cc(C2CC2)n[nH]1 [Example 07, N-{6-[(3-cyclopropyl-1H-pyrazol-5-yl)amino]-5-methoxy-1,2-benzoxazol-3-yl}-2,6-dimethoxy-4-(pyridin-3-yl)benzene-1-sulfonamide] | 457 | 0.6 | 53.6 | 4.2 |
| COc1cc2c(NS(=O)(=O)c3c(OC)cc(-c4ncco4)cc3OC)noc2cc1Nc1cc(C2CC2)n[nH]1 [Example 08, N-{6-[(3-cyclopropyl-1H-pyrazol-5-yl)amino]-5-methoxy-1,2-benzoxazol-3-yl}-2,6-dimethoxy-4-(1,3-oxazol-2-yl)benzene-1-sulfonamide] | 1620 | 1.2 | 46.9 | 12.8 |
| COc1cccc(OC)c1S(=O)(=O)Nc1noc2cc(NC3CCC3)cc(OC)c12 [Example 10, N-[6-(cyclobutylamino)-4-methoxy-1,2-benzoxazol-3-yl]-2,6-dimethoxybenzene-1-sulfonamide] | 11500 | 3.1 | 11800 | 727 |
| COc1cccc(OC)c1S(=O)(=O)Nc1noc2cc(N[C@H]3CCOC3)cc(OC)c12 [Example 14, 2,6-dimethoxy-N-(4-methoxy-6-{[(3S)-oxolan-3-yl]amino}-1,2-benzoxazol-3-yl)benzene-1-sulfonamide] | > 16300 | 10.1 | 44900 | > 2340 |
| COc1cccc(OC)c1S(=O)(=O)Nc1noc2cc(Nc3ccon3)cc(OC)c12 [Example 16, 2,6-dimethoxy-N-{4-methoxy-6-[(1,2-oxazol-3-yl)amino]-1,2-benzoxazol-3-yl}benzene-1-sulfonamide] | 2250 | 0.2 | 1650 | 702 |
| COc1cccc(OC)c1S(=O)(=O)Nc1noc2cc(Nc3ccccn3)cc(OC)c12 [Example 18, 2,6-dimethoxy-N-{4-methoxy-6-[(pyridin-2-yl)amino]-1,2-benzoxazol-3-yl}benzene-1-sulfonamide] | 5960 | 1 | 5420 | 245 |
| COc1cccc(OC)c1S(=O)(=O)Nc1noc2cc(Nc3cccnn3)cc(OC)c12 [Example 19, 2,6-dimethoxy-N-{4-methoxy-6-[(pyridazin-3-yl)amino]-1,2-benzoxazol-3-yl}benzene-1-sulfonamide] | > 16300 | 30.8 | 15700 | 516 |
| COc1cccc(OC)c1S(=O)(=O)Nc1noc2cc(Nc3ncccn3)cc(OC)c12 [Example 20, 2,6-dimethoxy-N-{4-methoxy-6-[(pyrimidin-2-yl)amino]-1,2-benzoxazol-3-yl}benzene-1-sulfonamide] | 14600 | 5.3 | 9380 | 1540 |
| COc1cc2c(NS(=O)(=O)c3c(OC)cccc3OC)noc2cc1Nc1cc(C(C)(F)F)n[nH]1 [Example 66, N-(6-{[3-(1,1-difluoroethyl)-1H-pyrazol-5-yl]amino}-5-methoxy-1,2-benzoxazol-3-yl)-2,6-dimethoxybenzene-1-sulfonamide] | > 13000 | 10.7 | 871 | 130 |
| CCOc1cc(C)c(F)cc1S(=O)(=O)Nc1noc2cc(Nc3cc(C4CC4)n[nH]3)c(F)c(OC)c12 [Example 70, N-{6-[(3-cyclopropyl-1H-pyrazol-5-yl)amino]-5-fluoro-4-methoxy-1,2-benzoxazol-3-yl}-2-ethoxy-5-fluoro-4-methylbenzene-1-sulfonamide] | 3880 | 1.9 | 280 | 16.4 |
| CCc1cc(Nc2cc3onc(NS(=O)(=O)c4c(OC)cccc4OC)c3cc2OC)nn1C [Example 73, N-{6-[(5-ethyl-1-methyl-1H-pyrazol-3-yl)amino]-5-methoxy-1,2-benzoxazol-3-yl}-2,6-dimethoxybenzene-1-sulfonamide] | 4330 | 0.7 | 287 | 31.3 |
